Structures are written as SMILES.

The results in this text go back to US20220281860A1, “COMPOUNDS AND METHODS OF TREATING RNA-MEDIATED DISEASES” (Arrakis Therapeutics, Inc., priority 2016, published 2022).

Experiment [1] has as its system RNA3WJ_0.0.0_5IB_3FAM (3WJ_0.0.0_5IB_3FAM) RNA three way junction. The experiment is described as follows: Thermal shift binding assay. The conditions noted are these: RNA3WJ_0.0.0_5IB_3FAM; 1 μM RNA, 8 μM compound, 1% DMSO; 10 mM CacoK pH 7.2, 30 mM NaCl. The source says:
(§1) Purpose: Test binding of compounds for RNA three way junction (for example, a construct of 38 nt). Thermal shift assay based on established fluorescence quenching assay utilizing FAM as fluorescence tag and Iowa Black as quencher. Tags were attached at the 3′ and 5′ end, respectively. Stable formation of 3WJ upon compound binding would lead to quenching of the FAM fluorescence due to close proximity of the Iowa Black tag. Thermal unfolding leads to increase of fluorescence emission. Assay readout: FAM (465-510 nm) Thermal Shift.
(§2) Assay sample buffer used: 10 mM CacoK pH 7.2, 30 mM NaCl. Buffer preparation in Dnase/Rnase Free distilled water (Gibco Life Technologies).
(§3) Tool compounds provided as dry powder are prepared as 50 mM stock solution in 100% d6-DMSO. Stock solutions of 50 mM concentration in d6-DMSO are stored at RT.
(§4) Sample plate: Roche, Light Cycler480 Multiwell Plate96, white, REF 04729692001. (Dilution plate: Greiner REF 781101, PS-Microplate, 384 well, clear). Thermal Shift device: Roche, Light Cycler480.
(§5) Daily fresh (10 ml): 1 ml 100 mM CacoK pH 7.2 and 0.3 ml 1 M NaCl filled up to 10 ml with Dnase/Rnase Free distilled water.
(§6) Dilute the RNA 1:10 (final 10 μM) in Assay Buffer.
(§7) Heat up the diluted RNA up to 90° C. for 5 min (sealed Eppendorf Tube).
(§8) Cool down the RNA probe slowly to RT.
(§9) Dilute the compounds to 800 μM in DMSO (Assay: 8 μM).
(§10) 78.4 μL Assay Buffer are pipetted into Greiner REF 781101, PS-Microplate, 384 (each well needed).
(§11) Add 0.8 μL of the RNA-Solution ([…]).
(§12) Add 0.8 μL Compound-Solution ([…]).
(§13) Final concentrations in the sample: 1 μM RNA, 8 μM compound, 1% DMSO
(§14) Pipet 20 μL Sample Solution into Roche, Light Cycler480 Multiwell Plate96, white, REF 04729692001.
(§15) When sample transfer is finished, seal the plate with a clear topseal (part of REF 04729692001).
(§16) Centrifuge the plate with a table-top device to spin down the samples.
(§17) Measure the 96 plate with the LightCycler480 (Channel: 480/510 nm; Temperature: 41-91° C.).
(§18) Analyse measurement-data with the MeltingCurveGenotyping Mode.
(§19) Settings: Acquisition mode: continuous; Ramp rate: 0.1 C.°/sec; Acquisition: 6/C.° Melt Curve Genotyping for All Samples
(§20) Melting curves analysis show melting temperature (Tm) of ˜51° C. Range of RNA concentrations was tested and assay window was determined (conc. range of 0.5-1 μM yields best results). The choice of buffer also affected the Tm. RNA constructs were tested under different buffer conditions (especially in presence of salt) in the thermal shift assay. […] CacoK with 30 mM salt at 1 μM RNA conc. was used to assess compound effects on 3WJ stability. […] These conditions were used for screening test compounds.

The next experiment relates to RNA3WJ_1.1.0_5IB_3FAM. Description: Thermal shift binding assay. The conditions noted are these: 1 μM RNA, 8 μM compound.
Description: as §1, §2, §3, §4, §5, §6, §7, §8, §9, §10, §11, §12, §13, §14, §15, §16, §17, §18, §19, §20

The next experiment relates to RNA3WJ_1.1.1_5IB_3FAM. Description: Thermal shift binding assay. The conditions noted are these: 1 μM RNA, 8 μM compound.
Description: as §1, §2, §3, §4, §5, §6, §7, §8, §9, §10, §11, §12, §13, §14, §15, §16, §17, §18, §19, §20

For the next experiment, the system named is RNA3WJ_2.0.0_5IB_3FAM. The experiment is described as follows: Thermal shift binding assay. The conditions noted are these: 1 μM RNA, 8 μM compound.
Description: as §1, §2, §3, §4, §5, §6, §7, §8, §9, §10, §11, §12, §13, §14, §15, §16, §17, §18, §19, §20

For the next experiment, the system named is RNA3WJ_2.1.0_5IB_3FAM. The experiment is described as follows: Thermal shift binding assay. The conditions noted are these: 1 μM RNA, 8 μM compound.
Description: as §1, §2, §3, §4, §5, §6, §7, §8, §9, §10, §11, §12, §13, §14, §15, §16, §17, §18, §19, §20

The test system of a further experiment is RNA3WJ_3.0.0_5IB_3FAM. Description: Thermal shift binding assay. The conditions noted are these: 1 μM RNA, 8 μM compound.
Description: as §1, §2, §3, §4, §5, §6, §7, §8, §9, §10, §11
Add 0.8 μL Compound-Solution ([…]). […]
as §14, §15, §16, §17, §18, §19, §20

Experiment [2] deals with RNA3WJ_1.0.0_5IB_3FAM (cis 3WJ with one unpaired nucleotide). The experiment is described as follows: Fluorescence quenching binding assay. The conditions noted are these: cis 3WJ RNA3WJ_1.0.0_5IB_3FAM; two concentration points; FIG. 109. As for the experimental part:
(§21) This assay will be used to test binding of compounds for RNA three way junction (such as a 38 nt construct). This is a fluorescence quenching assay utilizing FAM as fluorescence tag and Iowa Black as quencher. Tags are attached at the 3′ and 5′ end, respectively. Stable formation of MW upon compound binding would lead to quenching of the FAM fluorescence due to close proximity of the Iowa Black tag. Assay readout: FAM (485-520 nm) Fluorescence Intensity.
as §2, §3
(§22) Sample plate: Greiner cat #784076, black, 384 (Dilution plate: Greiner REF 781101, PS-Microplate, 384 well, clear). Fluorescence Intensity device: Envision 1040285
(§23) Daily fresh (10 ml): 1 ml 100 mM CacoK pH 7.2 and 0.3 ml 1 M NaCl filled up to 10 ml with Dnase/Rnase Free distilled water […]
(§24) Calibration of the expected fluorescence signal at various RNA concentrations in either CacoK or NaPO4 buffers was performed first. Experiments in buffers containing salt show distinct fluorescence quenching behavior. […]
(§25) The fluorescence quenching experiment was repeated for compounds Ark0000013 and Ark0000014 to measure binding with: […]

Experiment [3] concerns Split3WJ.1_up_5IB+Split3WJ.1_down_3FAM (trans 3WJ as 1:1 mix). Description: Fluorescence quenching binding assay. The conditions noted are these: trans 3WJ Split3WJ.1; two concentration points; FIG. 109. As to the method: as §21, §2, §3, §22, §23, §24, §25
Experiment [4] has as its system Split3WJ.2 up_5IB+Split3WJ.2_down_3FAM (trans 3WJ as 1:1 mix). Description: Fluorescence quenching binding assay. The conditions noted are these: trans 3WJ Split3WJ.2; two concentration points; FIG. 109. As for the experimental part: as §21, §2, §3, §22, §23, §24, §25

For the compound `CN(CCCN)CCCNC(=O)c1ccc2c(c1)C1c3cc(C(=O)NCCCN(C)CCCN)ccc3C2c2ccc(C(=O)NCCCN(C)CCCN)cc21` [Ark0000013, N^2,N^7,N^15-tris(3-((3-aminopropyl)(methyl)amino)propyl)-9,10-dihydro-9,10-[1,2]benzenoanthracene-2,7,15-tricarboxamide], the “Melting temp [° C.] + cmpd” value in [1] came to 84.1 °C; in the experiment with RNA3WJ_1.1.0_5IB_3FAM, 85.5 °C; with RNA3WJ_1.1.1_5IB_3FAM, 82.9 °C; with RNA3WJ_2.0.0_5IB_3FAM it was 84.3 °C; in the experiment with RNA3WJ_2.1.0_5IB_3FAM, 45.7 °C; in the experiment with RNA3WJ_3.0.0_5IB_3FAM, 83.7 °C. Further, the “Temp. Shift [° C.]” value in experiment [1] was found to be 24.2 °C; in the experiment with RNA3WJ_1.1.0_5IB_3FAM, 22.2 °C; with RNA3WJ_1.1.1_5IB_3FAM it was 20.7 °C; in the experiment on RNA3WJ_2.0.0_5IB_3FAM, 22.1 °C; with RNA3WJ_2.1.0_5IB_3FAM it was 3.8 °C; in the experiment on RNA3WJ_3.0.0_5IB_3FAM, 21.7 °C. For the same compound, the “Effect in fluorescence quenching assay” value in experiment [2], in experiment [3] and in experiment [4] was “significant concentration dependent effect” each time.

Regarding `NCCCCCCCNC(=O)c1ccc2c(c1)C1c3cc(C(=O)NCCCCCCCN)ccc3C2c2ccc(C(=O)NCCCCCCCN)cc21` [Ark0000014, N^2,N^7,N^15-tris(7-aminoheptyl)-9,10-dihydro-9,10-[1,2]benzenoanthracene-2,7,15-tricarboxamide], the “Melting temp [° C.] + cmpd” value stood at 61.5 °C in [1]; 65.1 °C in the experiment on RNA3WJ_1.1.0_5IB_3FAM; 64.3 °C in the experiment on RNA3WJ_1.1.1_5IB_3FAM; 64.4 °C in the experiment with RNA3WJ_2.0.0_5IB_3FAM; 42.0 °C with RNA3WJ_2.1.0_5IB_3FAM; 63.9 °C in the experiment on RNA3WJ_3.0.0_5IB_3FAM. Further, the “Temp. Shift [° C.]” value in [1] amounted to 1.6 °C; with RNA3WJ_1.1.0_5IB_3FAM, 1.8 °C; with RNA3WJ_1.1.1_5IB_3FAM, 2.1 °C; in the experiment on RNA3WJ_2.0.0_5IB_3FAM, 2.2 °C; with RNA3WJ_2.1.0_5IB_3FAM, 0.1 °C; with RNA3WJ_3.0.0_5IB_3FAM, 1.9 °C. In addition, the “Effect in fluorescence quenching assay” value is reported as “smaller effect” in [2], “smaller effect” in experiment [3] and “smaller effect on the RNA constructs (Split3WJ_2 shows larger effect)” in [4].
